Laboratory results taken from publication PMC6121260, “Sulfated Metabolites of Flavonolignans and 2,3-Dehydroflavonolignans: Preparation and Properties” (International Journal of Molecular Sciences, 2018).
Marks after values point to notes of the source that are not given here.

Assays:
[1] = Folin–Ciocalteu reagent (FCR) reduction; format: biochemical; details: Folin–Ciocalteau reagent reduction, gallic acid equivalents, mean ± standard error
Procedure: (§1) N,N-dimethyl-p-phenylenediamine (DMPD) and 2,2′-azino-bis(3-ethylbenzothiazolin-6-sulfonic acid (ABTS) cation radical scavenging and ferric reducing antioxidant power (FRAP) were measured using kits from Bioquochem (Llanera-Asturias, Spain). Antiradical activity by 2,2-diphenyl-1-picrylhydrazyl radical scavenging assay, reducing capacity using Folin–Ciocalteau reagent (FCR), and anti-lipoperoxidant activity using inhibition of lipid peroxidation of rat liver microsomes induced by tert-butyl hydroperoxide were determined as described previously with modifications described in detail in our previous research.

[2] = tested on: NAD(P)/quinone oxidoreductase 1 (NQO1) activity in Hepa1c1c7 cells; test: NQO1 activity in Hepa1c1c7 cells (Nrf2 pathway); format: cell-based, murine; details: 50 µM, 48 h
Procedure: The murine hepatoma Hepa1c1c7 cell line (ECACC, Salisbury, UK) was cultured in minimum essential medium α (M0894, Sigma-Aldrich, St. Louis, MO, USA), supplemented with 2.2 g/L NaHCO3 and 10% heat- and charcoal-treated fetal bovine serum (Biochrom, Berlin, Germany), and maintained at 37 °C in a humidified atmosphere containing 5% CO2. For all experiments, cells were seeded onto 96-well plates at 1 × 10^4 cells/well. After 24 h of stabilization, cells were treated for 48 h with 0.1% (v/v) DMSO (negative control), 2.5 µM sulforaphane (positive control; Sigma-Aldrich, St. Louis, MO, USA), or with the tested compounds in fresh culture medium. After the treatment, the activity of NQO1 was determined spectrophotometrically as described previously. Cells were washed with phosphate-buffered saline (PBS) and lysed with 75 µL of digitonin solution (0.8 g/L digitonin, 2 mM EDTA, pH 7.8) by shaking on an orbital shaker for 20 min at room temperature. A part of the cell lysate (20 µL) was used to determine the protein content. The remaining lysate (55 µL) was mixed with 200 µL of 0.5 M Tris-Cl buffer containing 10% (w/v) bovine serum albumin, 1.5% (v/v) Tween-20, 7.5 mM FAD, 150 mM glucose-6-phosphate, 2 U/mL glucose-6-phosphate dehydrogenase (Roche Diagnostics, Mannheim, Germany), 50 mM NADP^+, 25 mM menadione, and 0.7 mM 3-(4,5-dimethylthiazol-2-yl)-2,5-diphenyltetrazolium bromide (MTT). The mixture was incubated for 5 min at room temperature and the reaction was stopped with 50 µL of dicumarol suspension (0.3 mM dicumarol, 5 mM potassium phosphate, 0.5% (v/v) DMSO). The absorbance of the reduced MTT corresponding to the activity of NQO1 was measured at 610 nm on a spectrophotometric plate reader. The absorbance values were normalized to the protein content and used for the calculation of fold changes versus the control.

DPPH radical scavenging = format: biochemical; details: mean ± standard error
Procedure: as §1

[3] = DMPD+ cation radical scavenging; format: biochemical; details: vitamin C equivalents, mean ± standard error
Procedure: as §1

[4] = Inhibition of lipoperoxidation (Lpx) induced by tert-butyl hydroperoxide; format: biochemical; details: rat liver microsomal membranes, mean ± standard error
Procedure: as §1

[5] = Log p, octan-1-ol / phosphate buffer partition; format: physicochemical; details: octan-1-ol / 6.6 mM phosphate buffer pH 7.4, 25 °C
Procedure: The hydrophobicity of the compounds was determined by measuring their partition coefficient P in a mixture of two immiscible phases—octan-1-ol and 6.6 mM phosphate buffer pH 7.4. Stock solutions (0.5 mM) were prepared in octan-1-ol (parent compounds) and in the buffer (sulfated compounds). The stock solutions (150 µL) were mixed with 150 µL of the immiscible phase in microcentrifuge tubes (1.5 mL); shaken for 2 h (750 rpm, 25 °C); and after incubation, the phases were separated. Water phases were diluted 1:1 with the mobile phase (acetonitrile/deionized water/HCO2H, 5:95:0.1; v/v) and analyzed by HPLC using the gradient G3 (see Section 3.1.3). Octan-1-ol phases were evaporated in the stream of air (70 °C), then dissolved in 10 µL of DMSO, and mixed with 90 µL of mobile phase and analyzed by HPLC. The log p values were calculated from the respective peak heights (h) using the formula log p = log(hoctanol/hbuffer). For comparison, log p values were calculated using the Molinspiration property engine v2016.10 (http://www.molinspiration.com, Molinspiration Cheminformatics, Slovensky Grob, Slovakia) (access on 26th October 2017).

[6] = Ferric reducing antioxidant power (FRAP); format: biochemical; details: equivalents of Fe^2+, mean ± standard error
Procedure: as §1

[7] = ABTS+ cation radical scavenging; format: biochemical; details: vitamin C equivalents, mean ± standard error
Procedure: as §1

Compound | IC50 (DPPH radical scavenging) [µM] | IC50 (DPPH radical scavenging; listed as 2,3-dehydrosilychristin monosulfate) [µM] | IC50 [4] [µM] | logP at 2 h [5] | IC50 (DPPH radical scavenging; listed as 2,3-dehydrosilybin) [µM] | FCR [GAE] [1] | NQO1 activity, fold versus control [2] [fold] | DMPD^+ [CE] [3] | FRAP [Fe^2+] [6] | ABTS^+ [CE] [7] | FCR [GAE] ([1]; listed as 2,3-dehydrosilybin) | FRAP [Fe^2+] ([6]; listed as 2,3-dehydrosilybin) | DMPD^+ [CE] ([3]; listed as 2,3-dehydrosilybin disulfate) | FRAP [Fe^2+] ([6]; listed as 2,3-dehydrosilybin-7,20-di-O-sulfate) | FCR [GAE] ([1]; listed as 2,3-dehydrosilychristin)
COc1cc(C2Oc3cc(-c4oc5cc(O)cc(O)c5c(=O)c4O)ccc3OC2CO)ccc1O (stereo not drawn) [2,3-Dehydrosilybin, reference compound] | 13.3 ± 0.6 | – | 10.4 ± 0.4 | > 3 | 13 to 14 | 1.51 ± 0.09 ^l GAE | – | 1.02 ± 0.02 ^n CE | 0.81 ± 0.02 Fe^2+ | 0.77 ± 0.01 ^j CE | 1.50 | 0.81 | – | – | –
COc1cc(C2Oc3cc(-c4oc5cc(OS(=O)(=O)O)cc(O)c5c(=O)c4O)ccc3OC2CO)ccc1OS(=O)(=O)O (stereo not drawn) [2,3-Dehydrosilybin-7,20-di-O-sulfate] | 106 ± 4 | – | 90.7 ± 3.3 | < -3 | – | 0.95 ± 0.01 ^m GAE | 1.2 | 1.90 ± 0.10 CE | 1.61 ± 0.04 Fe^2+ | 0.55 ± 0.03 CE | – | – | 1.90 | 1.61 | –
COc1cc(C2Oc3cc(-c4oc5cc(O)cc(O)c5c(=O)c4O)ccc3OC2CO)ccc1OS(=O)(=O)O (stereo not drawn) [2,3-Dehydrosilybin-20-O-sulfate] | 14.1 ± 0.5 | – | 13.7 ± 0.4 | -2.16 | – | 1.03 ± 0.01 ^m GAE | 1.3 | 0.97 ± 0.02 ^n CE | 1.46 ± 0.03 ^r Fe^2+ | 0.71 ± 0.03 ^j CE | – | – | – | – | –

Compounds with a lower IC50 (DPPH radical scavenging), results first:

IC50 (DPPH radical scavenging) [µM] | IC50 (DPPH radical scavenging; listed as 2,3-dehydrosilychristin monosulfate) [µM] | IC50 [4] [µM] | logP at 2 h [5] | IC50 (DPPH radical scavenging; listed as 2,3-dehydrosilybin) [µM] | Compound | FCR [GAE] [1] | NQO1 activity, fold versus control [2] [fold] | DMPD^+ [CE] [3] | FRAP [Fe^2+] [6] | ABTS^+ [CE] [7] | FCR [GAE] ([1]; listed as 2,3-dehydrosilybin) | FRAP [Fe^2+] ([6]; listed as 2,3-dehydrosilybin) | DMPD^+ [CE] ([3]; listed as 2,3-dehydrosilybin disulfate) | FRAP [Fe^2+] ([6]; listed as 2,3-dehydrosilybin-7,20-di-O-sulfate) | FCR [GAE] ([1]; listed as 2,3-dehydrosilychristin)
7.9 ± 0.3 | 8 | 12 ± 1.8 | -2.24 | – | COc1cc(C2Oc3c(O)cc(-c4oc5cc(O)cc(O)c5c(=O)c4O)cc3C2CO)ccc1OS(=O)(=O)O (stereo not drawn) [2,3-Dehydro-silychristin-19-O-sulfate, 2,3-Dehydrosilychristin-19-O-sulfate] | 1.44 ± 0.01 ^l GAE | 1.4 | 1.02 ± 0.04 ^n CE | 1.44 ± 0.04 ^r Fe^2+ | 0.62 ± 0.02 ^n CE | – | – | – | – | –
8.6 ± 0.8 | – | 14.6 ± 0.4 | > 3 | – | COc1cc(C2Oc3c(O)cc(-c4oc5cc(O)cc(O)c5c(=O)c4O)cc3C2CO)ccc1O (stereo not drawn) [2,3-Dehydrosilychristin, reference compound] | 1.58 ± 0.04 ^l GAE | – | 0.97 ± 0.02 ^n CE | 0.28 ± 0.01 Fe^2+ | 0.93 ± 0.03 ^l CE | – | – | – | – | 1.58
